These results are taken from ChEMBL document CHEMBL2401711, “Recent progress and future options in the development of GLP-1 receptor agonists for the treatment of diabesity” (Bioorg Med Chem Lett, 2013).

Where only a bound is given, the exact number is not on record here.

The subject of data set [1] is Homo sapiens. The experiment in a line: Toxicity in type 2 diabetes patient assessed as gastro-intestinal side effects at 10 to 20 mg administered once per week up to 104 weeks. Format: organism-based. Conditions: in vivo, 17472 h.
The species entered for data set [2] is Homo sapiens. The experiment in a line: (§1) Half life in human. The note with it: in vivo. Format: ADME, organism-based.
In data set [3] the test system is Homo sapiens. The experiment in a line: Antidiabetic activity in type 2 diabetes patient assessed as reduction of body weight at => 0.8 mg administered once per week measured after 12 weeks (reference value: 1.2 kg). Format: functional, organism-based.
Data set [4] has as its system Homo sapiens. The experiment in a line: Antidiabetic activity in type 2 diabetes patient assessed as reduction of HbA1c at => 0.2 mg administered once per week measured after 12 weeks (reference value: 0.5%). The format is functional, organism-based. Set-up: scale not given: the % may be the effect or the level left.
Another data set concerns the target Albumin (Homo sapiens, UniProt P02768). The experiment in a line: Binding affinity to serum albumin (unknown origin) relative to control. The note with it: isolated protein. Format: ADME.
Data set [5] can be described thus: as §1. Format: ADME, organism-based. Conditions: in vivo.
The nature of data set [6]: Terminal half life in type 2 diabetes patient at 10 ug, sc bid. The format is ADME, organism-based. The note with it: human, in vivo, read-out: beta t1/2 (converted).

Chain of Albumin (P02768 whole entry): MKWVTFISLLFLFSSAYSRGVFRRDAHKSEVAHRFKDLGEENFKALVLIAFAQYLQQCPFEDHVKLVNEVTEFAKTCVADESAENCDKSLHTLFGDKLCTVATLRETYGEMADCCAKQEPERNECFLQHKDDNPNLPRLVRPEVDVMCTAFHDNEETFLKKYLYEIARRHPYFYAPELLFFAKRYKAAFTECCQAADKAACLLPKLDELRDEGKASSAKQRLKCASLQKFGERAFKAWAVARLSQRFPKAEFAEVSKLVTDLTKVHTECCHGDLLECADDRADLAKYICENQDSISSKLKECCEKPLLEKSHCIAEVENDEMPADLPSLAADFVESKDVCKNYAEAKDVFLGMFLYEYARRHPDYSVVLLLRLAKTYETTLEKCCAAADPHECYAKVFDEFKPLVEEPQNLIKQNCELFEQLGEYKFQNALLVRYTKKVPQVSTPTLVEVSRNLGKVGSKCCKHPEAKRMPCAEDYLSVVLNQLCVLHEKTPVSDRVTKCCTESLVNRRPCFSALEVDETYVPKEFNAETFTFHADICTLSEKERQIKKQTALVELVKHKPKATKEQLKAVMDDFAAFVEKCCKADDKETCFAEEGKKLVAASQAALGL

Regarding TASPOGLUTIDE, the Activity in the data set on Homo sapiens [1] is 34%.
SEMAGLUTIDE [listing 1 of 2 here] had a t1/2 in the data set listed under Homo sapiens [2] of 160 h.
Consider SEMAGLUTIDE [listing 2 of 2 here], for which the values for the Activity with Homo sapiens [3] and in the data set with Homo sapiens [4] were < 4.8 kg and < 1.7%, respectively.
Consider `CCCCCCCCCCCCCCCC(=O)N[C@@H](CCC(=O)NCCCC[C@H](NC(=O)[C@H](C)NC(=O)[C@H](C)NC(=O)[C@H](CCC(N)=O)NC(=O)CNC(=O)[C@H](CCC(=O)O)NC(=O)[C@H](CC(C)C)NC(=O)[C@H](Cc1ccc(O)cc1)NC(=O)[C@H](CO)NC(=O)[C@H](CO)NC(=O)[C@@H](NC(=O)[C@H](CC(=O)O)NC(=O)[C@H](CO)NC(=O)[C@@H](NC(=O)[C@H](Cc1ccccc1)NC(=O)[C@@H](NC(=O)CNC(=O)[C@H](CCC(=O)O)NC(=O)[C@H](C)NC(=O)[C@@H](N)Cc1cnc[nH]1)[C@@H](C)O)[C@@H](C)O)C(C)C)C(=O)N[C@@H](CCC(=O)O)C(=O)N[C@@H](Cc1ccccc1)C(=O)N[C@H](C(=O)N[C@@H](C)C(=O)N[C@@H](Cc1c[nH]c2ccccc12)C(=O)N[C@@H](CC(C)C)C(=O)N[C@H](C(=O)N[C@@H](CCCNC(=N)N)C(=O)NCC(=O)N[C@@H](CCCNC(=N)N)C(=O)NCC(=O)O)C(C)C)[C@@H](C)CC)C(=O)O` [LIRAGLUTIDE], for which, on Albumin, the Activity turned out to be 99%. In addition, in data set [5], the half-life is 264 h.
As to `CC[C@H](C)[C@H](NC(=O)[C@H](C)NC(=O)CNC(=O)[C@H](Cc1ccccc1)NC(=O)[C@H](CC(N)=O)NC(=O)[C@H](CC(N)=O)NC(=O)[C@H](CO)NC(=O)[C@H](CO)NC(=O)[C@H](Cc1c[nH]cn1)NC(=O)[C@@H](NC(=O)[C@H](CC(C)C)NC(=O)[C@H](Cc1ccccc1)NC(=O)[C@H](CC(N)=O)NC(=O)[C@H](C)NC(=O)[C@H](CC(C)C)NC(=O)[C@H](CCCNC(=N)N)NC(=O)[C@H](CCC(N)=O)NC(=O)[C@@H](NC(=O)[C@H](C)NC(=O)[C@@H]1CSSC[C@H](NC(=O)[C@@H](N)CCCCN)C(=O)N[C@@H](CC(N)=O)C(=O)N[C@@H]([C@@H](C)O)C(=O)N[C@@H](C)C(=O)N[C@@H]([C@@H](C)O)C(=O)N1)[C@@H](C)O)C(C)C)C(=O)N[C@@H](CC(C)C)C(=O)N[C@@H](CO)C(=O)N[C@@H](CO)C(=O)N[C@H](C(=O)N[C@@H](CC(N)=O)C(=O)N[C@H](C(=O)NCC(=O)N[C@@H](CO)C(=O)N[C@@H](CC(N)=O)C(=O)N[C@H](C(=O)N[C@@H](Cc1ccc(O)cc1)C(=O)O)[C@@H](C)O)C(C)C)[C@@H](C)O` [AMYLIN], in data set [6], the half-life is 2.4 h.
